# Results taken from patent US12156883B2, “Bisphosphocin gel formulations and uses thereof” (Lakewood Amedex, Inc., priority 2017, dated 2024).
# “Also recorded” adds a separate entry of the source.
# System: methicillin resistant Staphylococcus aureus strain USA300 (TPPS 1056)
# Experiment: Staphylococcus aureus-induced murine dermal infection model
# Type: in vivo
# Conditions: female SKH1 mice, topical 10% Nu-3 fatty alcohol-based gel pH 1.5, 4 h after challenge
# Protocol: Female SKH1 mice ordered from Charles River Laboratories are acclimated to housing conditions and handled in accordance with Animal Use Protocol (AUP) number TP-18. The animals are acclimated for a minimum of 24 hours prior to bacterial challenge and are 6-8 weeks old on Day 0 of the experiment. Only animals deemed healthy are included in this study. Animals are fed irradiated Teklad Global Rodent Diet 2918 and water ad libitum. Mice are housed in static cages with irradiated Teklad ⅛″ corn cob bedding 7902 inside bioBubble® Clean Rooms that provide H.E.P.A. filtered air into the bubble environment at 100 complete air changes per hour. All treatments and infectious challenges are carried out in a BSL2 surgical suite. The environment is controlled to a temperature range of 74°±4° F. and a humidity range of 30-70%. […]
# Immediately following tape stripping, each animal receives a topical application with approximately 6.0 log10 CFU per mouse in a volume of 100 μL spread in an area approximately 0.75″×0.75″. […] The final CFU count from the challenge suspension determined that 5.6 log10 CFU per mouse is delivered. […]
# Following euthanasia, a section of excised skin approximately 0.5″×0.5″ is aseptically removed from the infected/treated area and transferred to vials with 2.0 mL of sterile water and weighed. […] Tissue pH is measured using litmus paper and recorded. […]
smiles,measurement,setting,value
"CCCCOP(=O)(O)OC[C@H]1OC(n2cc(C)c(=O)[nH]c2=O)C[C@@H]1OP(=O)(O)OCCCC (stereo partly drawn) [Nu-3, (2R,3S)-2-((butoxy(hydroxy)phosphoryl)oxy)methyl)-5-(5-methyl-2,4-dioxo-3,4-dihydropyrimidin-1(2H)-yl)tetrahydrofuran-2-yl) butyl hydrogen phosphate]",CFU burden compared to untreated control animals,5 and 12 hours post-challenge,significant decreases; also recorded: significantly decreases
same,CFU burden compared to vehicle-treated animals,all harvest time points,significant decreases; also recorded: significantly decreases
